Activity calls are given as the source filed them. The calls are words filed in the database; no cut-off is given here.
How the values were obtained:
[1] = tested on: Mus musculus; assay: Inhibition of LPS-induced bone loss in ICR mouse assessed as restoration of Tb.Sp in femurs at 10 mg/kg, po after 10 days by morphometric analysis; type: functional, organism-based
[2] = tested on: Mus musculus; assay: Inhibition of ovariectomized-induced bone loss in C57BL/6 mouse assessed as restoration of osteoclast formation in femurs at 10 mg/kg, po administered every other day for 28 days by hematoxylin and eosin staining; type: functional, organism-based
[3] = tested on: Mus musculus; assay: Inhibition of ovariectomized-induced bone loss in C57BL/6 mouse assessed as CTX-I level in serum at 10 mg/kg, po administered every other day for 28 days by ELISA; type: functional, organism-based
[4] = tested on: Mus musculus; assay: Inhibition of LPS-induced bone loss in ICR mouse assessed as restoration of osteoclast formation in femurs at 10 mg/kg, po after 10 days by hematoxylin and eosin staining; type: functional, organism-based
[5] = tested on: Mus musculus; assay: Inhibition of LPS-induced bone loss in ICR mouse assessed as prevention of loss in trabecular bone in femurs at 10 mg/kg, po after 10 days by micro-CT analysis; type: functional, organism-based; conditions: Trabecula
[6] = biological target: T1, 1-phosphatidylinositol 4,5-bisphosphate phosphodiesterase gamma-2 (Mus musculus) (UniProt Q8CIH5); assay: Inhibition of RANKL-mediated PLCgamma2 phosphorylation in mouse BMMC at 100 uM after 1 hr by Western blot analysis
T1 sequence (whole entry): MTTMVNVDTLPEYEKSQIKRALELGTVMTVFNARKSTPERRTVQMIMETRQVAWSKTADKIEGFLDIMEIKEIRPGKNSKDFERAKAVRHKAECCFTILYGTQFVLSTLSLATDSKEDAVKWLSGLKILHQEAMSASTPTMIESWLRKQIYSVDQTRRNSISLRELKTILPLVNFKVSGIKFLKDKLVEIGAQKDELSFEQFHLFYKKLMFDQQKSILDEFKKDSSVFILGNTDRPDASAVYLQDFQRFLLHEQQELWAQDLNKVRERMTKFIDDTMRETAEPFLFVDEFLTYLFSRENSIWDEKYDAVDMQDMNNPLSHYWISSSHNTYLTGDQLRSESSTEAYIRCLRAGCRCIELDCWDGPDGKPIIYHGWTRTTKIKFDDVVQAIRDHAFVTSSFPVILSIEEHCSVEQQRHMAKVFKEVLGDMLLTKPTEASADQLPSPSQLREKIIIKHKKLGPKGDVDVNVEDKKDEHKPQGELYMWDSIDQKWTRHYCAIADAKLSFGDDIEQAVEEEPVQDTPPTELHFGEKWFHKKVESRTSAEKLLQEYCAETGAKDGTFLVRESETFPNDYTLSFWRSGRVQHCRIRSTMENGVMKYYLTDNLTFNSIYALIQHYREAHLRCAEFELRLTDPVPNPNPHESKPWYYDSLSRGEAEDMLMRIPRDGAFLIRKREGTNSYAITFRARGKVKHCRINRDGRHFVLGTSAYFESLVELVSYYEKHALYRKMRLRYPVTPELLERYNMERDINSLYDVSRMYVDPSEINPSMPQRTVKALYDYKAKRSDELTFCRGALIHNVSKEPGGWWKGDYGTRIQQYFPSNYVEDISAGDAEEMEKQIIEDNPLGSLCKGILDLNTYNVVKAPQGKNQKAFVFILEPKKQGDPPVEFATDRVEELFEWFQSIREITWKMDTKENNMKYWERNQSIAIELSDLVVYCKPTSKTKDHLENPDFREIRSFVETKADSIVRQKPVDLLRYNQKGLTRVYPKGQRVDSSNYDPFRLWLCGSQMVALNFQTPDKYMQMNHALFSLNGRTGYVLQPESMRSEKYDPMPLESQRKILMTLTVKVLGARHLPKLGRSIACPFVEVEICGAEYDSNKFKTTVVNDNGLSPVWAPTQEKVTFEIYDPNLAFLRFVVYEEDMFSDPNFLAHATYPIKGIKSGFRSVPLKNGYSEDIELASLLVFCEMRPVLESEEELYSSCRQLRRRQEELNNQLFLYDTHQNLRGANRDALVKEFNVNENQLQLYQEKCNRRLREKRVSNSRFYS

[7] = biological target: T2, Tumor necrosis factor ligand superfamily member 11 (Mus musculus) (UniProt O35235); assay: Inhibition of RANKL-mediated osteoclast differentiation in mouse BMMC assessed as formation of TRAP-positive osteoclasts after 4 days; type: functional
T2 sequence (whole entry): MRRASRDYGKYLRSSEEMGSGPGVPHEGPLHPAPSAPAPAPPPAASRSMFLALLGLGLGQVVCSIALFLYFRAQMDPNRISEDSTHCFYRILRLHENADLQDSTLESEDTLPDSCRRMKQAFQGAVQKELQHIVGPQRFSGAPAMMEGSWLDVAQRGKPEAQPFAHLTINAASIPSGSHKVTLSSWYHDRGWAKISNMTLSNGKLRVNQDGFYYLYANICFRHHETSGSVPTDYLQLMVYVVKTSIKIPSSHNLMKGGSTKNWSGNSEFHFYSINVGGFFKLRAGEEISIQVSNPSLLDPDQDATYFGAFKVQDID

[8] = biological target: T2, Tumor necrosis factor ligand superfamily member 11 (Mus musculus); assay: Inhibition of RANKL-mediated osteoclast differentiation in mouse BMMC assessed as disruption of F-actin ring formation after 3 days using phalloidin and DAPI staining; type: functional
[9] = biological target: T2, Tumor necrosis factor ligand superfamily member 11 (Mus musculus); assay: Inhibition of RANKL-mediated osteoclastogenesis in mouse BMMC assessed as reduction of OSCAR mRNA expression at 100 uM after 12 to 48 hrs by RT-PCR analysis; type: functional
[10] = tested on: Mus musculus; assay: Inhibition of ovariectomized-induced bone loss in C57BL/6 mouse assessed as restoration of BV/TV in femurs at 10 mg/kg, po administered every other day for 28 days by morphometric analysis; type: functional, organism-based
[11] = biological target: T2, Tumor necrosis factor ligand superfamily member 11 (Mus musculus); assay: Inhibition of RANKL-mediated osteoclastogenesis in mouse BMMC assessed as reduction of c-Fos protein expression at 100 uM after 12 to 48 hrs by Western blot analysis; type: functional
[12] = tested on: Mus musculus; assay: Inhibition of ovariectomized-induced bone loss in C57BL/6 mouse assessed as reduction of loss of bone mineral density at 10 mg/kg, po administered every other day for 28 days by micro-CT analysis; type: functional, organism-based
[13] = biological target: T2, Tumor necrosis factor ligand superfamily member 11 (Mus musculus); assay: Inhibition of RANKL-mediated osteoclastogenesis in mouse BMMC assessed as reduction of DC-STAMP mRNA expression at 100 uM after 12 to 48 hrs by RT-PCR analysis; type: functional
[14] = biological target: T2, Tumor necrosis factor ligand superfamily member 11 (Mus musculus); assay: Inhibition of RANKL-mediated osteoclastogenesis in mouse BMMC assessed as reduction of cathepsin K mRNA expression at 100 uM after 12 to 48 hrs by RT-PCR analysis; type: functional
[15] = biological target: Tyrosine-protein kinase BTK (Mus musculus) (UniProt P35991); assay: Inhibition of RANKL-mediated Btk phosphorylation in mouse BMMC at 100 uM after 1 hr by Western blot analysis
Chain of Tyrosine-protein kinase BTK (Mus musculus) (P35991 whole entry): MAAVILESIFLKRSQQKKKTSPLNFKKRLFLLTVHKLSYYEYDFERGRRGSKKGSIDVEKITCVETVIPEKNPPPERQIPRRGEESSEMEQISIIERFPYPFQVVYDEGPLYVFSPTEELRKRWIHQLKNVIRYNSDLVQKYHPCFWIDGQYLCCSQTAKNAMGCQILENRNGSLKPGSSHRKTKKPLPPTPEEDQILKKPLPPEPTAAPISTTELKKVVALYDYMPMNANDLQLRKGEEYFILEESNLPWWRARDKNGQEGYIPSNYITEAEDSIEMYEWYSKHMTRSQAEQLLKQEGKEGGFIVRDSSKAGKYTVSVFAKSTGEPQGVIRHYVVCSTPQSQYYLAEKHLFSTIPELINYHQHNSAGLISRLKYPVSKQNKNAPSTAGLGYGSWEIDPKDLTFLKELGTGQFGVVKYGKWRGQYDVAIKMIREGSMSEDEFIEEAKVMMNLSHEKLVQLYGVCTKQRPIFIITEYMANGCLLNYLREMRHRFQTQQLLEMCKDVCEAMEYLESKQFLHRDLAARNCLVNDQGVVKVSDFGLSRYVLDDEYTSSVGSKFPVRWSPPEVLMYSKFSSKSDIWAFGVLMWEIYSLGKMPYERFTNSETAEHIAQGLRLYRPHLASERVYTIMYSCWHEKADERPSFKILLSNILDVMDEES

[16] = tested on: Mus musculus; assay: Inhibition of ovariectomized-induced bone loss in C57BL/6 mouse assessed as restoration of Tb.N in femurs at 10 mg/kg, po administered every other day for 28 days by morphometric analysis; type: functional, organism-based
[17] = biological target: T2, Tumor necrosis factor ligand superfamily member 11 (Mus musculus); assay: Inhibition of RANKL-mediated osteoclastogenesis in mouse BMMC assessed as reduction of TRAP mRNA expression at 100 uM after 12 to 48 hrs by RT-PCR analysis; type: functional
[18] = tested on: Mus musculus; assay: Inhibition of ovariectomized-induced bone loss in C57BL/6 mouse assessed as restoration number of osteoclasts in femurs at 10 mg/kg, po administered every other day for 28 days; type: functional, organism-based
[19] = tested on: Mus musculus; assay: Inhibition of LPS-induced bone loss in ICR mouse assessed as restoration of BV/TV in femurs at 10 mg/kg, po after 10 days by morphometric analysis; type: functional, organism-based
[20] = tested on: Mus musculus; assay: Inhibition of LPS-induced bone loss in ICR mouse assessed as restoration of number of osteoclasts in femurs at 10 mg/kg, po after 10 days; type: functional, organism-based
[21] = tested on: Mus musculus; assay: Inhibition of LPS-induced bone loss in ICR mouse assessed as reduction of RANKL/OPG ratio in serum level at 10 mg/kg, po after 10 days by ELISA; type: functional, organism-based
[22] = biological target: T2, Tumor necrosis factor ligand superfamily member 11 (Mus musculus); assay: Inhibition of RANKL-mediated osteoclastogenesis in mouse BMMC assessed as reduction of NFATc1 protein expression at 100 uM after 12 to 48 hrs by Western blot analysis; type: functional
[23] = Cytotoxicity against mouse BMMC assessed as cell viability after 3 days by XTT assay; conditions: 72 h
[24] = tested on: Mus musculus; assay: Inhibition of LPS-induced bone loss in ICR mouse assessed as reduction of CTX-I in serum at 10 mg/kg, po after 10 days by ELISA; type: functional, organism-based
[25] = tested on: Mus musculus; assay: Inhibition of LPS-induced bone loss in ICR mouse assessed as restoration of bone loss in femurs at 10 mg/kg, po after 10 days by hematoxylin and eosin staining; type: functional, organism-based
[26] = biological target: T2, Tumor necrosis factor ligand superfamily member 11 (Mus musculus); assay: Inhibition of RANKL-mediated osteoclastogenesis in mouse BMMC assessed as reduction of amplitude and frequency of Ca2+ oscillations at 100 uM after 24 hrs by Fura-2/AM fluorescence assay; type: functional
[27] = biological target: T2, Tumor necrosis factor ligand superfamily member 11 (Mus musculus); assay: Inhibition of RANKL-mediated osteoclastogenesis in mouse BMMC assessed as reduction of CTR mRNA expression at 100 uM after 12 to 48 hrs by RT-PCR analysis; type: functional
[28] = biological target: T2, Tumor necrosis factor ligand superfamily member 11 (Mus musculus); assay: Inhibition of RANKL-mediated JNK phosphorylation in mouse BMMC at 100 uM after 1 hr by Western blot analysis
[29] = tested on: Mus musculus; assay: Inhibition of ovariectomized-induced bone loss in C57BL/6 mouse assessed as restoration of bone loss in femurs at 10 mg/kg, po administered every other day for 28 days by hematoxylin and eosin staining; type: functional, organism-based
[30] = tested on: Mus musculus; assay: Inhibition of ovariectomized-induced bone loss in C57BL/6 mouse assessed as restoration of Tb.Sp in femurs at 10 mg/kg, po administered every other day for 28 days by morphometric analysis; type: functional, organism-based
[31] = biological target: T2, Tumor necrosis factor ligand superfamily member 11 (Mus musculus); assay: Inhibition of RANKL-mediated osteoclastogenesis in mouse BMMC assessed as reduction of beta3-integrin mRNA expression at 100 uM after 12 to 48 hrs by RT-PCR analysis; type: functional
[32] = biological target: T2, Tumor necrosis factor ligand superfamily member 11 (Mus musculus); assay: Inhibition of RANKL-mediated ERK phosphorylation in mouse BMMC at 100 uM after 1 hr by Western blot analysis
[33] = biological target: T2, Tumor necrosis factor ligand superfamily member 11 (Mus musculus); assay: Inhibition of RANKL-mediated osteoclastogenesis in mouse BMMC assessed as reduction of NFATc1 mRNA expression at 100 uM after 12 to 48 hrs by RT-PCR analysis; type: functional
[34] = biological target: Tyrosine-protein kinase SYK (Mus musculus) (UniProt P48025); assay: Inhibition of RANKL-mediated Syk phosphorylation in mouse BMMC at 100 uM after 1 hr by Western blot analysis
Chain of Tyrosine-protein kinase SYK (Mus musculus) (P48025 whole entry, looked up): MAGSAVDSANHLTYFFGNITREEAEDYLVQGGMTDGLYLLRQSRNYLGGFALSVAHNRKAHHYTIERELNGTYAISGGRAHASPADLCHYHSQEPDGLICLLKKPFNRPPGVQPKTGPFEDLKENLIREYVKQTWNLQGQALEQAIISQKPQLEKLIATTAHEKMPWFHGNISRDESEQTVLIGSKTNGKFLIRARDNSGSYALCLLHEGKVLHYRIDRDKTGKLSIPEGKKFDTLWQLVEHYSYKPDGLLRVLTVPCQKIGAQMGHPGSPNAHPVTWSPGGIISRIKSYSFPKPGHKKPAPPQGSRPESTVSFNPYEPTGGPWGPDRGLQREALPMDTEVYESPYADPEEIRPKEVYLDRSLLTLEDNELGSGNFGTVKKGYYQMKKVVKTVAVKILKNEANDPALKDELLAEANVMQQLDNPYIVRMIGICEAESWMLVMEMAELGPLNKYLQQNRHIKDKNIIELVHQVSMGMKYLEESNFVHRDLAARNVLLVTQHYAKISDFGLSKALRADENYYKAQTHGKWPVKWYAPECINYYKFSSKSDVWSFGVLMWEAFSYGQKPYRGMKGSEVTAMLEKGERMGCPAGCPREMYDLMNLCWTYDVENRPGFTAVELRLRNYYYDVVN

[35] = tested on: Mus musculus; assay: Inhibition of LPS-induced bone loss in ICR mouse assessed as restoration of Tb.N in femurs at 10 mg/kg, po after 10 days by morphometric analysis; type: functional, organism-based
[36] = tested on: Osteoclast; assay: Inhibition of bone resorption in mouse mature osteoclasts after 24 hrs by light microscopic analysis; type: functional, cell-based
[37] = tested on: Mus musculus; assay: Inhibition of LPS-induced bone loss in ICR mouse assessed as restoration of Tb.Th in femurs at 10 mg/kg, po after 10 days by morphometric analysis; type: functional, organism-based
[38] = biological target: T2, Tumor necrosis factor ligand superfamily member 11 (Mus musculus); assay: Inhibition of RANKL-mediated osteoclastogenesis in mouse BMMC assessed as reduction of c-Fos mRNA expression at 100 uM after 12 to 48 hrs by RT-PCR analysis; type: functional

## C[C@]1(OC(=O)/C=C/c2ccccc2)C[C@@H](O)[C@]2(O)C=CO[C@@H](O[C@@H]3O[C@H](CO)[C@@H](O)[C@H](O)[C@H]3O)[C@@H]21 [HARPAGOSIDE]
[1]
  inhibition: Active
[2]
  inhibition: inactive
[3]
  inhibition: inactive
[4]
  inhibition: Active
[5]
  inhibition: Active
[6]
  inhibition: Active
[7]
  inhibition: Dose-dependent effect
[8]
  inhibition: Dose-dependent effect
[9]
  inhibition: Active
[10]
  inhibition: inactive
[11]
  inhibition: Active
[12]
  inhibition: inactive
[13]
  inhibition: Active
[14]
  inhibition: Active
[15]
  inhibition: Active
[16]
  inhibition: inactive
[17]
  inhibition: Active
[18]
  inhibition: inactive
[19]
  inhibition: Active
[20]
  inhibition: Active
[21]
  inhibition: Active
[22]
  inhibition: Active
[23]
  Activity: Non-toxic
[24]
  inhibition: Active
[25]
  inhibition: Active
[26]
  inhibition: Active
[27]
  inhibition: Active
[28]
  inhibition: Active
[29]
  inhibition: inactive
[30]
  inhibition: inactive
[31]
  inhibition: Active
[32]
  inhibition: Active
[33]
  inhibition: Active
[34]
  inhibition: Active
[35]
  inhibition: Active
[36]
  inhibition: Dose-dependent effect
[37]
  inhibition: inactive
[38]
  inhibition: Active

Source: ChEMBL document CHEMBL3608225, “Harpagoside Inhibits RANKL-Induced Osteoclastogenesis via Syk-Btk-PLCγ2-Ca(2+) Signaling Pathway and Prevents Inflammation-Mediated Bone Loss” (J Nat Prod, 2015)
